From PMC7912928, “Anti-Infective and Antiviral Activity of Valinomycin and Its Analogues from a Sea Cucumber-Associated Bacterium, Streptomyces sp. SV 21” (Marine Drugs, 2021)
Converted amounts (≈) assume the structure as drawn.

Tests used:
[1] = tested on: Mucor hiemalis (DSM 2656); format: cell-based; details: for MIC, Fungi, Mh: Mucor hiemalis (DSM 2656), microdilution in 96-well plates, seven 1:2 serial dilution steps, MYC medium pH 7.0, start OD548 0.1, 30 °C, 160 rpm overnight
Text: (§1) The panel of test microorganisms consisted of the following multi drug-resistant (MDR) bacteria: Gram-negative Escherichia coli (DSM 1116) and Pseudomonas aeruginosa (PA16); Gram-positive Bacillus subtilis (DSM 10), Staphylococcus aureus (DSM 346), and Mycobacterium smegmatis (ATCC 7000048); yeasts Candida albicans (DSM 1665) and Rhodotorula glutinis (DSM 10134); and filamentous fungi Mucor hiemalis (DSM 2656). The positive controls were nystatin, oxytetracyclin, kanamycin, and gentamycin, with a concentration of 1 mg/mL. Compounds 1–4 were prepared in a concentration of 1 mg/mL MeOH. The activity of the samples was observed by using the microdilution technique in 96 well plates for tissue cultures (TPP). As much as 20 µL of the MeOH solution of each compound (1 mg/mL) was mixed with 300 µL of bacterial or fungal suspension, except for the positive controls where 2 µL of either oxytetracycline, kanamycin, and gentamycin in 300 µL of bacterial suspension was used. The samples were tested in seven 1:2 serial dilution steps (concentrations A to H) in 96-well plates. Bacteria were cultivated in Mueller–Hinton bouillon (Roth) and fungi/yeasts in MYC medium (1.0% phytone peptone, 1.0% glucose, and 1.19% HEPES, pH 7.0). Start OD600 was 0.01 for B. subtilis, E. coli, and S. aureus; start OD548 was 0.1 for M. hiemalis, C. albicans, R. glutinis, M. smegmatis, and P. aeruginosa. The test organisms were cultivated at 30 °C and 160 rpm overnight.

[2] = tested on: Rhodoturula glutinis (DSM 10134); format: cell-based; details: for MIC, Fungi, Rg: Rhodoturula glutinis (DSM 10134), microdilution in 96-well plates, seven 1:2 serial dilution steps, MYC medium pH 7.0, start OD548 0.1, 30 °C, 160 rpm overnight
Text: as §1

[3] = tested on: Hepatitis C Virus (HCV), Jc1-derived Renilla reporter viruses in Huh7.5 Fluc cells; experiment: Inhibitory effects on Hepatitis C Virus (HCV) infectivity; format: cell-based; details: 10 µg/mL, Huh7.5 Fluc cells infected with Jc1-derived Renilla reporter viruses, Renilla luciferase read-out, compared to positive control EGCG, Figure 4A
Method: (§2) The anti-HCV assay was performed as mentioned in [5]. In brief, Huh7.5 cells stably expressing Firefly luciferase (Huh7.5 Fluc) were cultured in Dulbecco’s modified minimum essential medium (DMEM, Gibco, Thermo Fisher Scientific, Schwerte, Germany) and maintained in a 37 °C environment with 5% CO2 supply. Samples were added to the cells, and then the cells were infected with Jc1-derived Renilla reporter viruses. Compounds and the positive control (Epigallocatechin gallate, EGCG) were tested at a concentration of 10 µg/mL. Renilla and Firefly luciferase activities from the infected cells were measured on a Berthold Technologies Centro XS3 Microplate Luminometer (Bad Wildbad, Germany) as indicators of viral genome replication and cell viability, respectively.

[4] = tested on: Eschericia coli (DSM 1116); experiment: Antimicrobial microdilution assay (MIC); format: cell-based, Escherichia coli; details: seven 1:2 serial dilution steps, Mueller–Hinton bouillon, start OD600 0.01, 30 °C, 160 rpm overnight; for MIC, Gram-Negative, Ec: microdilution in 96-well plates
Text: as §1

[5] = tested on: Huh7.5 cells; experiment: Viability of Huh7.5 cells (Firefly luciferase) in the anti-HCV assay; format: cell-based; details: 10 µg/mL; Firefly luciferase read-out; compared to positive control EGCG; Figure 4B
Method: as §2

[6] = tested on: Bacillus subtilis (DSM 10); experiment: microbe, parasite or virus in culture; format: cell-based; details: seven 1:2 serial dilution steps, Mueller–Hinton bouillon, start OD600 0.01, 30 °C, 160 rpm overnight
Text: as §1

[7] = tested on: Staphylococcus aureus (DSM 346); experiment: microbe, parasite or virus in culture; format: cell-based; details: seven 1:2 serial dilution steps, Mueller–Hinton bouillon, start OD600 0.01, 30 °C, 160 rpm overnight; for MIC, Gram-Positive, Sa: microdilution in 96-well plates
Text: as §1

[8] = tested on: Pseudomonas aeruginosa (PA14); experiment: Antimicrobial microdilution assay (MIC); format: cell-based; details: microdilution in 96-well plates, seven 1:2 serial dilution steps, Mueller–Hinton bouillon, start OD548 0.1, 30 °C, 160 rpm overnight
Text: as §1

[9] = tested on: Mycobacterium smegmatis (ATCC 700084); experiment: Antimicrobial microdilution assay (MIC); format: cell-based; details: microdilution in 96-well plates, seven 1:2 serial dilution steps, Mueller–Hinton bouillon, start OD548 0.1, 30 °C, 160 rpm overnight
Text: as §1

[10] = tested on: Bacillus subtilis (Bs); details: pH values from 5.5 to 9.5; cited from earlier work
Text: Previous studies had also shown antifungal activity of valinomycin against the plant pathoge ...

[11] = tested on: Candida albicans (DSM 1665); experiment: Antimicrobial microdilution assay (MIC); format: cell-based; details: microdilution in 96-well plates, seven 1:2 serial dilution steps, MYC medium pH 7.0, start OD548 0.1, 30 °C, 160 rpm overnight
Text: as §1

Compound | MIC, Fungi, Mh [1] | MIC, Fungi, Rg [2] | Activity against HCV infectivity (HCV-infected hepatoma cells), in words [3] | MIC, Gram-Negative, Ec [4] | Viability of Huh7.5 cells after exposure to the test compounds, in words [5] | also measured
CC(C)[C@@H]1NC(=O)[C@H](C)OC(=O)[C@@H](C(C)C)NC(=O)[C@@H](C(C)C)OC(=O)[C@H](C(C)C)NC(=O)[C@H](C)OC(=O)[C@@H](C(C)C)NC(=O)[C@@H](C(C)C)OC(=O)[C@H](C(C)C)NC(=O)[C@H](C)OC(=O)[C@@H](C(C)C)NC(=O)[C@H](C)OC1=O [Streptodepsipeptide P11B (1), Streptodepsipeptide P11B] | 16.6 µg/mL (≈ 15.3 µM) | 33.3 µg/mL (≈ 30.7 µM) | significantly less affected the HCV | - |  | 
CCC(C)[C@H]1OC(=O)[C@H](C(C)C)NC(=O)[C@H](C)OC(=O)[C@@H](C(C)C)NC(=O)[C@@H](C(C)C)OC(=O)[C@H](C(C)C)NC(=O)[C@H](C)OC(=O)[C@@H](C(C)C)NC(=O)[C@@H](C(C)C)OC(=O)[C@H](C(C)C)NC(=O)[C@H](C)OC(=O)[C@@H](C(C)C)NC1=O (stereo partly drawn) [Streptodepsipeptide SV21 (4), Streptodepsipeptide SV21] | 16.6 µg/mL (≈ 14.8 µM) | 16.6 µg/mL (≈ 14.8 µM) |  | - | lower than for the positive control | Activity against HCV infectivity (HCV-infected hepatoma cells), in words ([3]; listed as 4): potent antiviral activity; MIC, Gram-Positive, Bs ([6]; microdilution in 96-well plates): 33.3 µg/mL (≈ 29.6 µM); MIC, Gram-Positive, Sa [7]: 16.6 µg/mL (≈ 14.8 µM)
Gentamycin |  |  |  |  |  | MIC, Gram-Negative, Pa [8]: 0.4 µg/mL
CC[C@H]1OC(=O)[C@H](C(C)C)NC(=O)[C@H](C)OC(=O)[C@@H](C(C)C)NC(=O)[C@@H](C(C)C)OC(=O)[C@H](C(C)C)NC(=O)[C@H](C)OC(=O)[C@@H](C(C)C)NC(=O)[C@@H](C(C)C)OC(=O)[C@H](C(C)C)NC(=O)[C@H](C)OC(=O)[C@@H](C(C)C)NC1=O [Streptodepsipeptide P11A (2), Streptodepsipeptide P11A] | 8.3 µg/mL (≈ 7.56 µM) | 8.3 µg/mL (≈ 7.56 µM) | potent antiviral activity | - | lower than for the positive control | 
CN(C)[C@@H]1C(O)=C(C(N)=O)C(=O)[C@@]2(O)C(O)=C3C(=O)c4c(O)cccc4[C@@](C)(O)[C@H]3[C@H](O)[C@@H]12 [Oxytetracycline, reference compound] |  |  |  |  |  | MIC ([6]; DSM10, microdilution in 96-well plates, read-out: MIC, Gram-Positive, Bs): 8.3 µg/mL (≈ 18 µM); MIC ([7]; DSM346, microdilution in 96-well plates, read-out: MIC, Gram-Positive, Sa): 0.2 µg/mL (≈ 0.434 µM); MIC ([4]; Escherichia coli, DSM1116, microdilution in 96-well plates, read-out: MIC, Gram-Negative, Ec): 1.7 µg/mL (≈ 3.69 µM)
NC[C@H]1O[C@H](O[C@H]2[C@H](O)[C@@H](O[C@H]3O[C@H](CO)[C@@H](O)[C@H](N)[C@H]3O)[C@H](N)C[C@@H]2N)[C@H](O)[C@@H](O)[C@@H]1O [Kanamycin] |  |  |  |  |  | MIC, Gram-Positive, Ms [9]: 3.3 µg/mL (≈ 6.81 µM)
CC(C)[C@@H]1NC(=O)[C@H](C)OC(=O)[C@@H](C(C)C)NC(=O)[C@@H](C(C)C)OC(=O)[C@H](C(C)C)NC(=O)[C@H](C)OC(=O)[C@@H](C(C)C)NC(=O)[C@@H](C(C)C)OC(=O)[C@H](C(C)C)NC(=O)[C@H](C)OC(=O)[C@@H](C(C)C)NC(=O)[C@@H](C(C)C)OC1=O [Valinomycin (3), Valinomycin] | 2.1 µg/mL (≈ 1.89 µM) | 4.2 µg/mL (≈ 3.78 µM) | potent antiviral activity | - | lower than for the positive control | Antifungal strength relative to nystatin against Mh ([1]; comparison of MIC values, Mucor hiemalis): eight times stronger than nystatin; Antifungal strength relative to nystatin against Rg ([2]; comparison of MIC values, Rg): as strong as nystatin; Antibacterial activity against Bs as a function of pH, in words [10]: increase in antibacterial activity against Bs at higher pH values; MIC, Gram-Positive, Sa [7]: 4.2 µg/mL (≈ 3.78 µM)
C[C@@H]1[C@H](O)[C@@H](C)/C=C/C=C/CC/C=C/C=C/C=C/C=C/C(O[C@H]2O[C@H](C)[C@@H](O)[C@H](N)[C@@H]2O)CC2O[C@](O)(CC(O)C(O)CCC(O)CC(O)CC(O)CC(=O)O[C@H]1C)CC(O)C2C(=O)O (stereo partly drawn) [Nystatin, reference compound] | 16.6 µg/mL (≈ 17.9 µM) | 4.2 µg/mL (≈ 4.54 µM) |  |  |  | MIC, Fungi, Ca [11]: 33.3 µg/mL (≈ 36 µM)
